This note sets out measurements from ChEMBL document CHEMBL1770132, “The discovery of high affinity agonists of GPR109a with reduced serum shift and improved ADME properties” (Bioorg Med Chem Lett, 2011).

Common to all, as to type: ADME, organism-based
The nature of data set [1]: Half life in plasma of C57BL/6 mouse at 1 mg/kg, iv and 2 mg/kg, po.
Data set [2] can be described thus: Half life in Sprague-Dawley rat. The conditions noted are these: in vivo.
Data set [3] is described as follows: Bioavailability in Sprague-Dawley rat at 1 mg/kg, iv and 2 mg/kg, po. The conditions noted are these: in vivo.
Data set [4] can be described thus: Half life in plasma of C57BL/6 mouse.
The nature of data set [5]: Plasma clearance in Sprague-Dawley rat.
Data set [6] can be described thus: Plasma clearance in C57BL/6 mouse.
Data set [7] can be described thus: Bioavailability in C57BL/6 mouse at 1 mg/kg, iv and 2 mg/kg, po. Conditions: in vivo.

As a reminder, the half-life is how long it takes for the measured level to halve. A high value points to slow decline. One may read the bioavailability as dose-corrected exposure relative to a reference, in per cent. A lower bioavailability goes with poor availability. Broadly, the clearance is the volume of plasma or blood freed of the substance per unit of time.

The compound `O=C(CCc1ccc(-c2ccc(O)cc2)cc1)Nc1ccccc1C(=O)O` gave a half-life in data set [1] of 2.4 h.

Regarding `O=C(CCc1nc(-c2ccc(O)cn2)no1)NC1=C(C(=O)O)CCCC1`, the half-life in data set [2] is 2.2 h; in data set [4] it was 1.4 h. For the same compound, in data set [3], the bioavailability amounted to 8.1%. This compound also yielded a clearance in data set [5] of 1 mL/min/kg.

Take `N[C@@H](Cc1nc(-c2ccc(O)cn2)no1)C(=O)NC1=C(C(=O)O)CCCC1`: the half-life in data set [2] is 2.3 h; in data set [4], 4.5 h. In addition, the clearance in data set [6] worked out at 2.5 mL/min/kg; in data set [5], 0.7 mL/min/kg. Moreover, the bioavailability in data set [3] is 2%; in data set [7] it was 9%.

In data set [6], `C[C@@H]1CCC(C(=O)O)=C(NC(=O)[C@@H](N)Cc2nc(-c3ccc(O)cn3)no2)C1` gave a clearance of 9.22 mL/min/kg. In data set [7], this compound came in with a bioavailability of 7.5%. For the same compound, the half-life in data set [4] was 2.64 h.

Consider `C[C@@H]1CCC(C(=O)O)=C(NC(=O)[C@@H](N)Cc2nc(-c3ccc(F)cn3)no2)C1`, for which the results for the half-life in data set [2] and in data set [4] were 5.5 h and 5.6 h, respectively. The clearance in data set [6] came to 1.7 mL/min/kg; in data set [5] it was 0.7 mL/min/kg. For the same compound, the bioavailability in data set [3] was 81%; in data set [7], 100%.

Turning to `C[C@@H]1CCC(C(=O)O)=C(NC(=O)CCc2nc(-c3ccc(F)cn3)no2)C1`, the clearance in data set [6] was 3.3 mL/min/kg. The same compound displayed a bioavailability in data set [7] of 54%. The same compound showed a half-life in data set [4] of 4.7 h.
